Laboratory results: patent US20250144067A1, “PERSONALIZED STARVATION THERAPY FOR CANCER” (Faeth Therapeutics, Inc., priority 2021, published 2025)
Where a name gives a salt, the structure may show the parent alone. Read-outs that look alike come from different tables or passages of the source. Peptide text beside a SMILES is read from it.

Tests used:
[1] = test system: NCI-H292 lung cancer cells; test: FDA drug screening, complete media vs cholesterol-free media without statin (TABLE 1); format: cell-based, human
[2] = test system: NCI-H292 lung cancer cells; test: FDA drug screening, complete media vs cholesterol-free media with simvastatin (TABLE 2); format: cell-based, human
[3] = NCI-H292 cells, cholesterol-free media without statin, FDA drug library screen
[4] = NCI-H292 cells, complete media, FDA drug library screen
[5] = complete vs cholesterol-free media, >0 enhanced anti-cancer activity, about 0 neutral, <0 antagonist
[6] = NCI-H292 cells, drug in cholesterol-free media with simvastatin 0.04 μM
[7] = NCI-H292 cells, drug in complete media
[8] = complete media vs cholesterol-free media + simvastatin (0.04 μM), >0 enhanced anti-cancer activity, about 0 neutral, <0 antagonist
[9] = NCI-H292 cells, cholesterol-free media with simvastatin 0.04 μM, FDA drug library screen (TABLE 2)
[10] = NCI-H292 cells, complete media, FDA drug library screen (TABLE 2)
[11] = Complete minus Cholesterol-free, >0 enhanced anti-cancer activity, about 0 neutral, <0 antagonist
[12] = NCI-H292 cells, cholesterol-free media without statin
[13] = Complete minus Cholesterol-free, greater than 0 enhanced anti-cancer activity, about 0 neutral, below 0 antagonist
[14] = NCI-H292 cells, FDA drug library screen, cholesterol-free media without statin
[15] = NCI-H292 cells, FDA drug library screen, complete media
[16] = NCI-H292 cells, FDA drug library screen, cholesterol-free media with simvastatin 0.04 μM
[17] = Complete minus Cholesterol-free, greater than 0 enhanced anti-cancer activity, about 0 neutral, below 0 antagonists
[18] = NCI-H292 cells in cholesterol-free media without statin
[19] = NCI-H292 cells in complete media
[20] = NCI-H292 cells, cholesterol-free media with simvastatin 0.04 μM, cell growth value in FDA drug screen
[21] = NCI-H292 cells, complete media, cell growth value in FDA drug screen
[22] = complete media minus cholesterol-free media + simvastatin, >0 enhanced anti-cancer activity, about 0 neutral, <0 antagonist
[23] = complete vs cholesterol-free media, […]

CN1[C@@H]2CC[C@H]1C[C@@H](OC(=O)C(CO)c1ccccc1)C2 (stereo partly shown) [Atropine (sulfate monohydrate)]
Complete [1]: 1.139
Difference [1]: 0.08
Cholesterol-free media + simvastatin (0.04 μM) [2]: 0.6465
Complete Media [2]: 0.6938
Difference [2]: 0.05

C[N+]1(C)[C@@H]2CC[C@H]1C[C@@H](OC(=O)C(CO)c1ccccc1)C2 (stereo partly shown) [Atropine methyl bromide]
Cholesterol-free [1, 3]: 1.114
Complete [1, 4]: 1.708
Difference [1, 5]: 0.59
Cholesterol-free media + simvastatin (0.04 μM) [2, 6]: 1.143
Complete Media [2, 7]: 0.9562
Difference [2, 8]: −0.19

CN1[C@@H]2CC[C@H]1C[C@@H](OC(=O)C(CO)c1ccccc1)C2 (stereo partly shown) [Atropine]
Cholesterol-free [1]: 1.317
Complete [1]: 0.8977
Difference [1]: −0.42
Cholesterol-free media + simvastatin (0.04 μM) [2]: 1.317
Difference [2]: −0.28

CC(=O)OC[C@H]1O[C@@H]([S-])[C@H](OC(C)=O)[C@@H](OC(C)=O)[C@@H]1OC(C)=O.CCP(CC)CC.[Au+] [Auranofin]
Difference ([1]; Complete minus Cholesterol-free, […]): 0.01
Cholesterol-free [1, 3]: −0.008527
Complete [1, 4]: 0.0049
Cholesterol-free media + simvastatin (0.04 μM) [2, 9]: 0.01251
Complete Media [2, 10]: 0.0008313
Difference ([2]; complete media minus cholesterol-free media + simvastatin (0.04 μM), […]): −0.01

COc1ccc(CN=c2[nH]c(N3CCC[C@H]3CO)ncc2C(=O)NCc2ncccn2)cc1Cl [Avanafil]
Difference [1, 11]: −0.27
Cholesterol-free [1, 12]: 0.9577
Complete ([1]; NCI-H292 cells, complete media): 0.6848
Cholesterol-free media + simvastatin (0.04 μM) [2, 6]: 1.12
Complete Media [2, 7]: 0.9091
Difference [2, 8]: −0.21

O=C(Nc1nc(-c2cc(Cl)cs2)c(N2CCN(C3CCCCC3)CC2)s1)c1cnc(N2CCC(C(=O)O)CC2)c(Cl)c1 [Avatrombopag (hydrochloride)]
Difference [1, 13]: −0.15
Cholesterol-free [1, 14]: 0.9128
Complete [1, 15]: 0.7673
Cholesterol-free media + simvastatin (0.04 μM) [2, 16]: 1.18
Complete Media [2, 15]: 1.082
Difference [2, 8]: −0.10

NC(=O)[C@@H]1CC[C@@H]2CN1C(=O)N2OS(=O)(=O)O [Avibactam (sodium hydrate)]
Cholesterol-free [1, 3]: 0.6447
Complete [1, 4]: 0.883
Difference [1, 5]: 0.24
Cholesterol-free media + simvastatin (0.04 μM) [2, 16]: 1.124
Complete Media [2, 15]: 1.029
Difference [2, 8]: −0.09

NC(=O)[C@@H]1CC[C@@H]2CN1C(=O)N2OS(=O)(=O)O [Avibactam (sodium)]
Difference [1, 17]: −0.74
Cholesterol-free [1, 18]: 1.514
Complete [1, 19]: 0.7743
Cholesterol-free media + simvastatin (0.04 μM) [2, 20]: 1.031
Complete Media [2, 21]: 1.132
Difference [2, 22]: 0.10

COc1ccc(C(=O)CC(=O)c2ccc(C(C)(C)C)cc2)cc1 [Avobenzone]
Difference [1, 17]: −0.48
Cholesterol-free [1, 18]: 1.457
Complete [1, 19]: 0.9767
Cholesterol-free media + simvastatin (0.04 μM) [2, 16]: 1.07
Complete Media [2, 15]: 0.9672
Difference [2, 8]: −0.10

CNC(=O)c1ccccc1Sc1ccc2c(/C=C/c3ccccn3)n[nH]c2c1 [Axitinib]
Cholesterol-free [1, 3]: 0.7104
Complete [1, 4]: 1.034
Difference [1, 5]: 0.32
Cholesterol-free media + simvastatin (0.04 μM) [2, 6]: 0.9239
Complete Media [2, 7]: 0.7152
Difference [2, 8]: −0.21

O=C(CCCN1CCN(c2ccccn2)CC1)c1ccc(F)cc1 [Azaperone]
Difference [1, 11]: −0.01
Cholesterol-free [1, 3]: 0.9307
Complete [1, 4]: 0.9163
Cholesterol-free media + simvastatin (0.04 μM) [2, 9]: 1.007
Complete Media [2, 10]: 0.9983
Difference ([2]; complete media minus cholesterol-free media + simvastatin (0.04 μM), >0 enhanced anti-cancer activity, about 0 neutral, <0 antagonist): −0.01

CN1CCN(c2cc3c(nn2)Oc2ccccc2N3C)CC1.Cl.Cl.O [Azaphen (dihydrochloride monohydrate)]
Cholesterol-free [1, 12]: 1.204
Complete ([1]; NCI-H292 cells, complete media): 0.7783
Difference [1, 23]: −0.43
Cholesterol-free media + simvastatin (0.04 μM) [2, 16]: 1.02
Complete Media [2, 15]: 0.9251
Difference ([2]; complete media vs cholesterol-free media + simvastatin (0.04 μM), […]): −0.09

CN1C(=O)COc2c(C(=O)NC3CN4CCC3CC4)cc(Cl)cc21 (stereo not shown) [Azasetron (hydrochloride)]
Difference [1, 11]: −0.07
Cholesterol-free [1, 3]: 0.8277
Complete [1, 4]: 0.7612
Cholesterol-free media + simvastatin (0.04 μM) [2, 20]: 0.9264
Complete Media [2, 21]: 0.9552
Difference [2, 22]: 0.03

Cn1cnc([N+](=O)[O-])c1Sc1ncnc2nc[nH]c12 [Azathioprine]
Difference [1, 11]: −0.20
Cholesterol-free [1, 12]: 0.5865
Complete ([1]; NCI-H292 cells, complete media): 0.3893
Cholesterol-free media + simvastatin (0.04 μM) [2, 6]: 1.672
Complete Media [2, 7]: 1.494
Difference [2, 8]: −0.18

O=C(O)CCCCCCCC(=O)O [Azelaic acid]
Difference [1, 17]: −0.60
Cholesterol-free [1, 18]: 1.702
Complete [1, 19]: 1.104
Cholesterol-free media + simvastatin (0.04 μM) ([2]; NCI-H292 cells, FDA library drug in cholesterol-free media with simvastatin 0.04 μM): 1.245
Complete Media ([2]; NCI-H292 cells, FDA library drug in complete media): 0.8813
Difference [2, 8]: −0.36

CN1CCCC(n2nc(Cc3ccc(Cl)cc3)c3ccccc3c2=O)CC1 (stereo not shown) [Azelastine (hydrochloride)]
Cholesterol-free [1, 3]: 0.9594
Complete [1, 4]: 1.039
Difference [1, 5]: 0.08
Cholesterol-free media + simvastatin (0.04 μM) [2, 6]: 1.092
Complete Media [2, 7]: 0.8741
Difference [2, 8]: −0.22

CC1=C(C(=O)OC(C)C)C(c2cccc([N+](=O)[O-])c2)C(C(=O)OC2CN(C(c3ccccc3)c3ccccc3)C2)=C(N)N1 (stereo not shown) [Azelnidipine]
Difference [1, 13]: −0.15
Cholesterol-free [1, 14]: 0.7076
Complete [1, 15]: 0.5567
Cholesterol-free media + simvastatin (0.04 μM) [2, 16]: 0.7982
Complete Media [2, 15]: 1.013
Difference [2, 22]: 0.21

CCOc1nc2cccc(C(=O)OCc3oc(=O)oc3C)c2n1Cc1ccc(-c2ccccc2-c2noc(=O)[nH]2)cc1 [Azilsartan medoxomil]
Difference [1, 17]: −0.49
Cholesterol-free [1, 18]: 1.119
Complete [1, 19]: 0.6328
Cholesterol-free media + simvastatin (0.04 μM) [2, 16]: 1.394
Complete Media [2, 15]: 1.269
Difference [2, 8]: −0.12

CCOc1nc2cccc(C(=O)O)c2n1Cc1ccc(-c2ccccc2-c2nc(=O)o[nH]2)cc1 [Azilsartan]
Cholesterol-free [1, 12]: 1.417
Complete ([1]; NCI-H292 cells, complete media): 1.021
Difference ([1]; complete vs cholesterol-free media, greater than 0 enhanced anti-cancer activity, about 0 neutral, below 0 antagonists): −0.40
Cholesterol-free media + simvastatin (0.04 μM) [2, 16]: 1.196
Complete Media [2, 15]: 1.042
Difference [2, 8]: −0.15

CC[C@H]1OC(=O)[C@H](C)[C@@H](O[C@H]2C[C@@](C)(OC)[C@@H](O)[C@H](C)O2)[C@H](C)[C@@H](O[C@@H]2O[C@H](C)C[C@H](N(C)C)[C@H]2O)[C@](C)(O)C[C@@H](C)CN(C)[C@H](C)[C@@H](O)[C@]1(C)O [Azithromycin]
Difference [1, 11]: 0.05
Cholesterol-free [1, 3]: 1.249
Complete [1, 4]: 1.303
Cholesterol-free media + simvastatin (0.04 μM) [2, 6]: 1.336
Complete Media [2, 7]: 1.162
Difference [2, 8]: −0.17

CC1(C)S[C@@H]2[C@H](NC(=O)[C@H](NC(=O)N3CCNC3=O)c3ccccc3)C(=O)N2[C@H]1C(=O)O [Azlocillin (sodium salt)]
Difference [1, 13]: −0.16
Cholesterol-free [1, 14]: 1.217
Complete [1, 15]: 1.06
Cholesterol-free media + simvastatin (0.04 μM) [2, 16]: 1.046
Complete Media [2, 15]: 0.9592
Difference [2, 8]: −0.09

C[C@H]1[C@H](NC(=O)/C(=N\OC(C)(C)C(=O)O)c2csc(N)n2)C(=O)N1S(=O)(=O)O [Aztreonam]
Difference [1, 11]: −0.20
Cholesterol-free [1, 12]: 1.093
Complete ([1]; NCI-H292 cells, complete media): 0.892
Cholesterol-free media + simvastatin (0.04 μM) [2, 6]: 1.706
Complete Media [2, 7]: 1.446
Difference [2, 8]: −0.26

CCOC(=O)OC(C)OC(=O)[C@@H]1N2C(=O)[C@@H](NC(=O)[C@H](N)c3ccccc3)[C@H]2SC1(C)C (stereo partly shown) [Bacampicillin (hydrochloride)]
Difference [1, 13]: −0.18
Cholesterol-free [1, 14]: 1.212
Complete [1, 15]: 1.028
Cholesterol-free media + simvastatin (0.04 μM) [2, 16]: 1.049
Complete Media [2, 15]: 0.956
Difference [2, 8]: −0.09

CC[C@H](C)[C@H](N)C1=N[C@H](C(=O)N[C@@H](CC(C)C)C(=O)N[C@H](CCC(=O)O)C(=O)N[C@H](C(=O)N[C@H]2CCCCNC(=O)[C@H](CC(N)=O)NC(=O)[C@@H](CC(=O)O)NC(=O)[C@H](Cc3cnc[nH]3)NC(=O)[C@@H](Cc3ccccc3)NC(=O)[C@H]([C@@H](C)CC)NC(=O)[C@@H](CCCN)NC2=O)[C@@H](C)CC)CS1 [Bacitracin] (HELM PEPTIDE1{[CC[C@H](C)[C@H](N)C1=N[C@H](C(=O)[*:2])CS1].L.[dE].I.K.[NCCC[C@@H](N[*:1])C(=O)[*:2]].I.[dF].H.[dD].N}$PEPTIDE1,PEPTIDE1,5:R3-11:R2$$$V2.0)
Cholesterol-free [1, 12]: 1.42
Complete ([1]; NCI-H292 cells, complete media): 1.094
Difference [1, 23]: −0.33
Cholesterol-free media + simvastatin (0.04 μM) [2, 16]: 0.9407
Complete Media [2, 15]: 1.203
Difference ([2]; complete media minus cholesterol-free media + simvastatin, […]): 0.26

NCC(CC(=O)O)c1ccc(Cl)cc1 (stereo not shown) [Baclofen]
Cholesterol-free [1, 3]: 0.5541
Complete [1, 4]: 1.886
Difference [1, 5]: 1.33
Cholesterol-free media + simvastatin (0.04 μM) [2, 20]: 0.9225
Complete Media [2, 21]: 1.02
Difference [2, 22]: 0.10
